The melting point is the temperature of the solid-liquid transition.

Regarding `CCCC1=C(C#N)C(c2ccc(F)cc2Cl)c2c[nH]nc2N1` (stereo not drawn) [Example 363, 5-Cyano-4,7-dihydro-4-(4-fluoro-2-chlorophenyl)-6-propyl-2H-pyrazolo[3,4-b]pyridine], the melting point was 209 to 212 °C.

`CCCC1=C(C#N)C(c2cccc(N3CCOCC3)c2)c2c[nH]nc2N1` (stereo not drawn) [Example 364, 5-Cyano-4,7-dihydro-4-(3-(morpholin-4-yl)phenyl)-6-propyl-2H-pyrazolo[3,4-b]pyridine] came in with a melting point of 196 to 200 °C.

With `CC(C)C1=C(C#N)C(c2cccc(N3CCOCC3)c2)c2c[nH]nc2N1` (stereo not drawn) [Example 365, 5-Cyano-4,7-dihydro-4-(3-(morpholin-4-yl)phenyl)-6-isopropyl-2H-pyrazolo[3,4-b]pyridine], the melting point was in the range of 254 to 257 °C.

`N#CC1=C(C2CC2)Nc2n[nH]cc2C1c1cccc(N2CCOCC2)c1` (stereo not drawn) [Example 366, 5-Cyano-6-cyclopropyl-4,7-dihydro-4-(3-(morpholin-4-yl)phenyl)-2H-pyrazolo[3,4-b]pyridine] returned a melting point of over 260 °C.

For the compound `CC(C)(C)OC(=O)N1CCC(C2=C(C#N)C(c3cccc4nonc34)c3c[nH]nc3N2)CC1` (stereo not drawn) [Example 1001, 4-(2,1,3-Benzoxadiazol-4-yl)-6-(1-t-butoxycarbonylpiperidin-4-yl)-5-cyano-4,7-dihydro-2H-pyrazolo[3,4-b]pyridine], the melting point was found to be 226 °C.

For `CC(C)(C)OC(=O)N1CCCC(C2=C(C#N)C(c3cccc4nonc34)c3c[nH]nc3N2)C1` (stereo not drawn) [Example 1004, 4-(2,1,3-Benzoxadiazol-4-yl)-6-(1-t-butoxycarbonylpiperidin-3-yl)-5-cyano-4,7-dihydro-2H-pyrazolo[3,4-b]pyridine], the melting point worked out at 229 °C.

`N#CC1=C(C2CCCNC2)Nc2n[nH]cc2C1c1cccc2nonc12` (stereo not drawn) [Example 1005, 4-(2,1,3-Benzoxadiazol-4-yl)-5-cyano-4,7-dihydro-6-(piperidin-3-yl)-2H-pyrazolo[3,4-b]pyridine] gave a melting point of 202 °C.

As for `CN1CCCC(C2=C(C#N)C(c3cccc4nonc34)c3c[nH]nc3N2)C1` (stereo not drawn) [Example 1006, 4-(2,1,3-Benzoxadiazol-4-yl)-5-cyano-4,7-dihydro-6-(1-methylpiperidin-3-yl)-2H-pyrazolo[3,4-b]pyridine], the melting point is 228 °C.

As for `CC(C)(C)OC(=O)N1CC=C(C2=C(C#N)C(c3cccc4nonc34)c3c[nH]nc3N2)CC1` (stereo not drawn) [Example 1012, 4-(2,1,3-Benzoxadiazol-4-yl)-6-(1-t-butoxycarbonyl-1,2,3,6-tetrahydropyridin-4-yl)-5-cyano-4,7-dihydro-2H-pyrazolo[3,4-b]pyridine], the melting point amounted to 222 °C.

On to `N#CC1=C(C2=CCNCC2)Nc2n[nH]cc2C1c1cccc2nonc12` (stereo not drawn) [Example 1013, 4-(2,1,3-Benzoxadiazol-4-yl)-5-cyano-4,7-dihydro-6-(1,2,3,6-tetrahydropyridin-4-yl)-2H-pyrazolo[3,4-b]pyridine], for which the melting point turned out to be 180 °C.

Compound `CN1CC=C(C2=C(C#N)C(c3cccc4nonc34)c3c[nH]nc3N2)CC1` (stereo not drawn) [Example 1014, 4-(2,1,3-Benzoxadiazol-4-yl)-5-cyano-4,7-dihydro-6-(1-methyl-1,2,3,6-tetrahydropyridin-4-yl)-2H-pyrazolo[3,4-b]pyridine] displayed a melting point of 218 °C.

The compound `CN(CCC1=C(C#N)C(c2cccc3nonc23)c2c[nH]nc2N1)C(=O)OC(C)(C)C` (stereo not drawn) [Example 1015, 4-(2,1,3-Benzoxadiazol-4-yl)-6-(2-(N-t-butoxycarbonyl-N-methylamino)ethyl)-5-cyano-4,7-dihydro-2H-pyrazolo[3,4-b]-pyridine] registered a melting point of 240 °C.

`CNCCC1=C(C#N)C(c2cccc3nonc23)c2c[nH]nc2N1` (stereo not drawn) [Example 1016, 4-(2,1,3-Benzoxadiazol-4-yl)-5-cyano-4,7-dihydro-6-(2-(N-methylamino)ethyl)-2H-pyrazolo[3,4-b]pyridine] had a melting point of 174 °C.

In turn, `CC(C)(C)OC(=O)NCCC1=C(C#N)C(c2cccc3nonc23)c2c[nH]nc2N1` (stereo not drawn) [Example 1017, 4-(2,1,3-Benzoxadiazol-4-yl)-6-(2-(N-t-butoxycarbonyl-amino)ethyl)-5-cyano-4,7-dihydro-2H-pyrazolo[3,4-b]pyridine] gave a melting point of 231 °C.

For the compound `CN(C)CCC1=C(C#N)C(c2cccc3nonc23)c2c[nH]nc2N1` (stereo not drawn) [Example 1019, 4-(2,1,3-Benzoxadiazol-4-yl)-5-cyano-4,7-dihydro-6-(2-(N,N-dimethylamino)ethyl)-2H-pyrazolo[3,4-b]pyridine], the melting point was 215 °C.

The compound `CN(CC1=C(C#N)C(c2cccc3nonc23)c2c[nH]nc2N1)C(=O)OC(C)(C)C` (stereo not drawn) [Example 1020, 4-(2,1,3-Benzoxadiazol-4-yl)-6-((N-t-butoxycarbonyl-N-methylamino)methyl)-5-cyano-4,7-dihydro-2H-pyrazolo[3,4-b]-pyridine] displayed a melting point of 207 °C.

Compound `N#CC1=C(C2CCN(C(=O)c3ccccc3)CC2)Nc2n[nH]cc2C1c1cccc2nonc12` (stereo not drawn) [Example 1026, 4-(2,1,3-Benzoxadiazol-4-yl)-6-(1-benzoylpiperidin-4-yl)-5-cyano-4,7-dihydro-2H-pyrazolo[3,4-b]pyridine] showed a melting point of 228 °C.

Compound `CC(=O)N1CC=C(C2=C(C#N)C(c3cccc4nonc34)c3c[nH]nc3N2)CC1` (stereo not drawn) [Example 1027, 6-(1-Acetyl-1,2,3,6-tetrahydropyridin-4-yl)-4-(2,1,3-benzoxadiazol-4-yl)-5-cyano-4,7-dihydro-2H-pyrazolo[3,4-b]-pyridine] yielded a melting point of 237 °C.

For the compound `CS(=O)(=O)N1CCC(C2=C(C#N)C(c3cccc4nonc34)c3c[nH]nc3N2)CC1` (stereo not drawn) [Example 1029, 4-(2,1,3-Benzoxadiazol-4-yl)-5-cyano-4,7-dihydro-6-(1-methanesulfonylpiperidin-4-yl)-2H-pyrazolo[3,4-b]pyridine], the melting point came to 243 °C.

Compound `N#CC1=C(C2CCN(C(=N)N)CC2)Nc2n[nH]cc2C1c1cccc2nonc12` (stereo not drawn) [Example 1031, 4-(2,1,3-Benzoxadiazol-4-yl)-5-cyano-4,7-dihydro-6-(1-guanylpiperidin-4-yl)-2H-pyrazolo[3,4-b]pyridine] came in with a melting point of over 270 °C.

As to `CC(=O)N1CCCC(C2=C(C#N)C(c3cccc4nonc34)c3c[nH]nc3N2)C1` (stereo not drawn) [Example 1032, 6-(1-Acetylpiperidin-3-yl)-4-(2,1,3-benzoxadiazol-4-yl)-5-cyano-4,7-dihydro-2H-pyrazolo[3,4-b]pyridine], the melting point was determined as 219 °C.

On to `CCN1CCC(C2=C(C#N)C(c3cccc4nonc34)c3c[nH]nc3N2)CC1` (stereo not drawn) [Example 1033, 4-(2,1,3-Benzoxadiazol-4-yl)-5-cyano-4,7-dihydro-6-(1-ethylpiperidin-4-yl)-2H-pyrazolo[3,4-b]pyridine], for which the melting point stood at 231 °C.

As to `CCCN1CCC(C2=C(C#N)C(c3cccc4nonc34)c3c[nH]nc3N2)CC1` (stereo not drawn) [Example 1034, 4-(2,1,3-Benzoxadiazol-4-yl)-5-cyano-4,7-dihydro-6-(1-propylpiperidin-4-yl)-2H-pyrazolo[3,4-b]pyridine], the melting point was 246 °C.

Take `CC(C)N1CCC(C2=C(C#N)C(c3cccc4nonc34)c3c[nH]nc3N2)CC1` (stereo not drawn) [Example 1035, 4-(2,1,3-Benzoxadiazol-4-yl)-5-cyano-4,7-dihydro-6-(1-iso-propylpiperidin-4-yl)-2H-pyrazolo[3,4-b]pyridine]: the melting point worked out at 260 °C.

`CC(C)(C)OC(=O)N1CCC(C2=C(C#N)C(c3cccc(C#N)c3Br)c3c[nH]nc3N2)CC1` (stereo not drawn) [Example 1036, 4-(2-Bromo-3-cyanophenyl)-6-(1-t-butoxycarbonylpiperidin-4-yl)-5-cyano-4,7-dihydro-2H-pyrazolo[3,4-b]pyridine] showed a melting point of over 270 °C.

Consider `N#CC1=C(C2CCNCC2)Nc2n[nH]cc2C1c1cccc(C#N)c1Br` (stereo not drawn) [Example 1037, 4-(2-Bromo-3-cyanophenyl)-5-cyano-4,7-dihydro-6-(piperidin-4-yl)-2H-pyrazolo[3,4-b]pyridine], for which the melting point is over 270 °C.

For the compound `CN1CCC(C2=C(C#N)C(c3cccc(C#N)c3Br)c3c[nH]nc3N2)CC1` (stereo not drawn) [Example 1038, 4-(2-Bromo-3-cyanophenyl)-5-cyano-4,7-dihydro-6-(1-methylpiperidin-4-yl)-2H-pyrazolo[3,4-b]pyridine], the melting point was over 270 °C.

Compound `CC(C)(C)OC(=O)N1CCCC(C2=C(C#N)C(c3cccc(C#N)c3Br)c3c[nH]nc3N2)C1` (stereo not drawn) [Example 1039, 4-(2-Bromo-3-cyanophenyl)-6-(1-t-butoxycarbonylpiperidin-3-yl)-5-cyano-4,7-dihydro-2H-pyrazolo[3,4-b]pyridine] had a melting point of 238 °C.

Turning to `CC(C)(C)OC(=O)N1CCOC(C2=C(C#N)C(c3cccc(C#N)c3Br)c3c[nH]nc3N2)C1` (stereo not drawn) [Example 1044, 4-(2-Bromo-3-cyanophenyl)-6-(4-t-butoxycarbonylmorpholin-2-yl)-5-cyano-4,7-dihydro-2H-pyrazolo[3,4-b]pyridine], the melting point was 219 °C.

Consider `N#CC1=C(C2=CCNCC2)Nc2n[nH]cc2C1c1cccc(C#N)c1Br` (stereo not drawn) [Example 1047, 4-(2-Bromo-3-cyanophenyl)-5-cyano-4,7-dihydro-6-(1,2,3,6-tetrahydropyridin-4-yl)-2H-pyrazolo[3,4-b]pyridine], for which the melting point was found to be 226 °C.

`CN1CC=C(C2=C(C#N)C(c3cccc(C#N)c3Br)c3c[nH]nc3N2)CC1` (stereo not drawn) [Example 1048, 4-(2-Bromo-3-cyanophenyl)-5-cyano-4,7-dihydro-6-(1-methyl-1,2,3,6-tetrahydropyridin-4-yl)-2H-pyrazolo[3,4-b]pyridine] had a melting point of 233 °C.

As for `CC(=O)N1CCC(C2=C(C#N)C(c3cccc(C#N)c3Br)c3c[nH]nc3N2)CC1` (stereo not drawn) [Example 1051, 6-(1-Acetylpiperidin-4-yl)-4-(2-bromo-3-cyanophenyl)-5-cyano-4,7-dihydro-2H-pyrazolo[3,4-b]pyridine], the melting point was over 280 °C.

The compound `N#CC1=C(C2CCN(C(=O)c3ccccc3)CC2)Nc2n[nH]cc2C1c1cccc(C#N)c1Br` (stereo not drawn) [Example 1052, 6-(1-Benzoylpiperidin-4-yl)-4-(2-bromo-3-cyanophenyl)-5-cyano-4,7-dihydro-2H-pyrazolo[3,4-b]pyridine] came in with a melting point of over 280 °C.

(Values after patent publication US6977262B2, “Dihydropyrazolopyridine compounds and pharmaceutical use thereof” (Mitsubishi Pharma Corporation, priority 2001, dated 2005).)
